In patent publication US20200352878A1, “USE OF CANNABINOIDS IN THE TREATMENT OF EPILEPSY” (priority 2018, published 2020):

How the values were obtained:
[1] = Open-label, fixed sequence healthy volunteer drug-drug interaction trial of CBD and stiripentol (steady-state pharmacokinetics, safety); assay type: in vivo, human; settings: healthy volunteers
Protocol: As part of an open-label, fixed sequence, healthy volunteer trial the primary objective was to investigate the impact of CBD (750 mg twice daily) on the steady-state pharmacokinetics of stiripentol (STP) (750 mg) and the reciprocal effect on CBD, 7-hydroxy-cannabidiol (7-OH-CBD) and 7-carboxy-cannabidiol (7-COOH-CBD).
Analyte plasma concentrations were determined using validated bioanalytical methods. A secondary objective was to evaluate the safety and tolerability of CBD when co-administered with STP.

[2] = test system: convulsive seizures in patients with treatment-resistant Dravet syndrome; assay: Clinical trial of adjunctive CBD in treatment-resistant Dravet syndrome; analysis of the interaction with concomitant AEDs; assay type: in vivo, human; settings: for Percentage of patients with greater than 50% reduction in seizures: Dravet syndrome patients aged 2-18 years, convulsive seizures over treatment period vs 4-week baseline, CBD 20 mg/kg/day or placebo added to current AEDs
Protocol: Following completion of a 4-week baseline period, patients were randomized to receive either 20 mg/kg/day CBD (n=61) or placebo (n=59). CBD or placebo were added to their current anti-epileptic treatment which remained stable over the treatment period of the study.
Seizure counts were reported daily via an Interactive Voice Response System. Convulsive seizures were defined as all countable atonic, tonic, clonic, and tonic-clonic seizures. The primary efficacy end point was percent change from baseline in convulsive seizures.
During a 4-week baseline period, patients were required to have at least 4 convulsive seizures (tonic-clonic, clonic, tonic or atonic) while on stable AED therapy. Patients had previously failed a median of 4 prior AEDs and 93% were taking 2 or more concomitant AEDs during the trial. The most commonly used concomitant AEDs (>25% of patients) were clobazam, valproate, stiripentol, levetiracetam, and topiramate.
Following the trial statistical analysis was performed on the various patient groups to determine whether there was an interaction between any of the concomitant AEDs that the patients were taking.
Table 6 below describes the percentage of patients that recorded a 50% reduction in convulsive seizures over the treatment period.

[3] = CBD 750 mg twice daily, STP 750 mg, plasma

C=C(C)[C@@H]1CCC(C(=O)O)=C[C@H]1c1c(O)cc(CCCCC)cc1O [7-COOH-CBD, 7-carboxy-cannabidiol]
reduction of exposure by co-administered STP [1, 3]: 13%

C=C(C)[C@@H]1CCC(CO)=C[C@H]1c1c(O)cc(CCCCC)cc1O [7-OH-CBD, 7-hydroxy-cannabidiol]
reduction of exposure by co-administered STP [1, 3]: 29%

C=C(C)[C@@H]1CCC(C)=C[C@H]1c1c(O)cc(CCCCC)cc1O [CBD, cannabidiol]
effect of co-administration of STP on CBD exposure [1, 3]: no effect
most common adverse event (AE) ([1]; CBD co-administered with STP): diarrhoea
median percent change from baseline in reduction of convulsive seizures, compared with placebo ([2]; CBD 20 mg/kg/day group (n=61) vs placebo (n=59), p=0.0123): statistically superior to placebo

CC(C)(C)C(O)/C=C/c1ccc2c(c1)OCO2 (stereo not shown) [Stiripentol, stiripentol]
Percentage of patients with greater than 50% reduction in seizures [2]: 14%
Percentage of patients with greater than 50% reduction in seizures ([2]; listed as stiripentol): 14%
